{"source": "paper PMC4873738", "about": "“A Small Molecule Inhibitor of PDK1/PLCγ1 Interaction Blocks Breast and Melanoma Cancer Cell Invasion” (Scientific Reports, 2016)", "target": "T1, 3-phosphoinositide-dependent protein kinase 1 (PDK1) (Homo sapiens, UniProt O15530)", "T1 construct": "gene PDPK1; PH domain, amino-acids 411-552", "T1 sequence (O15530 411-552)": "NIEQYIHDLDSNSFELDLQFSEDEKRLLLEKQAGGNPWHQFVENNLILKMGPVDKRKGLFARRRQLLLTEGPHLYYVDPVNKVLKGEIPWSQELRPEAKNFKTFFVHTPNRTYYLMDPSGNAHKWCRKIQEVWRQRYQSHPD", "assay": "isothermal titration calorimetry with purified recombinant PH domain, […] °C, four experiments, n = […]", "assay_type": "binding"}
{"smiles": "O=P(O)(O)O[C@@H]1[C@@H](OP(=O)(O)O)[C@H](OP(=O)(O)O)[C@H](OCc2ccccc2)[C@H](OP(=O)(O)O)[C@H]1OP(=O)(O)O", "note": "[2-O-Bn-InsP5, 2-O-benzyl-myo-inositol 1,3,4,5,6-pentakisphosphate]", "values": [{"measurement": "Kd", "value": "109 ± 44", "unit": "nM"}]}
